{"source": "patent US8293764B2", "about": "“Compositions and methods for disruption of BRCA2-Rad51 interaction” (The Regents of the University of California, priority 2004, dated 2012)", "test_system": "Rad51 in MCF-7 cells", "assay": "Rad51 stability assay with cyclohexamide", "type": "cell-based", "details": "1 μM MG132, IBR2 treated and control cells", "source_text": "To examine the impact of IBR2 on Rad51 protein expression, IBR2 treated MCF-7 cells was examined by straight western blot probed with a panel of antibodies against BRCA2, Rad51, Rad50, p84 and Rb. […] Consistent with our FACS analysis (FIG. 4A), the hypo-phosphorylated form of Rb, a marker for G1 phase, was the major form observed in the later time points, further confirming that IBR2 arrests cells at G1 phase (FIG. 4A). It has been reported that BRCA2 level is cell cycle dependent, which expresses low in G1 phase and peaks at G1/S boundary. Therefore the decreased level of BRCA2 in IBR2 treated cells may be due to G1 phase arrest. Different from BRCA2 protein, Rad51 protein is expressed constant throughout the cell cycle in MCF-7 cells (data not shown). Therefore, loss of Rad51 protein may be the direct effect of IBR2 treatment instead of the consequence of G1 arrest. […]\nWestern blot analysis: Cells were treated with […] or 50 μg/ml cycloheximide (CHX) or 1 μM MG132 and harvested at different time points for western blot analysis. […] The intensity of bands was quantified by densitometry using Labworks 4.5 software. The relative value of the band intensity was calculated with respect to that of untreated sample after normalization with the p84 signal.", "note": "Peptide text beside a SMILES is read from it. * marks the point of attachment. Cbz = O=C(OCc1ccccc1)*", "data": [{"compound": "CC(C)C[C@@H](C=O)NC(=O)[C@H](CC(C)C)NC(=O)[C@H](CC(C)C)NC(=O)OCc1ccccc1", "note": "[MG132, reference compound] (Cbz-Leu-Leu-Leu-aldehyde)", "values": [{"measurement": "half-life of Rad51 with addition of MG132", "value": "prolonged"}]}]}
